Experiments:
[1] = molecular target: T1, δ-opioid receptor (Mus musculus, UniProt P32300); test: δ-opioid antagonist activity against DPDPE in mouse vas deferens (MVD); details: for Ratio of IC50 Values: DPDPE IC50 with/without 100 nM test compound; for Ratio of IC50 Values / Kb: 20 min; for Kb: against DPDPE, test compound 100 nM, read-out: Ke
T1 construct: from tissue; host or cells: vas deferens of male ddy mice
Procedure: Using mouse vas deferens (MVD), the antagonist activity against DPDPE which is a δ-opioid agonist was checked.
In this experiment, ddy male mice were used. In a Magnus' tube which is filled with Krebes-Henseleit solution (NaCl […]; KCl 4.7 mM; CaCl2 2.5 mM; KH2 PO4 1.1 mM; NaHCO3 25 mM; glucose 11 mM) kept at 37° C., and into which an atmosphere consisting of 5% carbon dioxide and 95% oxygen was flown, vas deferens taken from the animals was suspended. Electric stimulation was applied through ring-shaped platinum electrodes mounted on the upper and lower portions of the tube at a frequency of 0.1 Hz and 5.0 mS duration. The contraction of the tissue was recorded on polygraph using isometric transducer.
Then 100 nM of the test compound was added. Twenty minutes later, DPDPE was begun to be added cumulatively. The ratio of IC50 values in the presence and absence of the test compound, Ke value (the molar concentration of the test compound necessary for translating the dose-effect curve to the curve of twice dose) and pA2 value were determined. The pA2 value was determined by the method of Shild et al (Shild, H. O., Br. J. Pharmac. Chamotehr., 4, 277 (1949)). That is, the logarithm of the test compound (log[test compound]) was plotted along the abscissa and the logarithm of the value obtained by subtracting 1 from the ratio of IC50 values was plotted in the presence and absence of the test compound [log(dose ratio-1)] along the ordinate. The pA2 value was determined from the value on the abscissa when the value on the ordinate of the obtained line is 0.

[2] = molecular target: T2, κ-opioid receptor (Cavia porcellus, UniProt P41144); test: κ-opioid antagonist activity against U-50488H in guinea pig ileum (GPI); details: 20 min; for Ratio of IC50 Values: U-50488H IC50 with/without 100 nM test compound; for Kb: against U-50488H, test compound 100 nM, read-out: Ke
T2 construct: from tissue; host or cells: ileum longitudinal muscle of male Hartley guinea pigs
T2 sequence (P41144 whole entry): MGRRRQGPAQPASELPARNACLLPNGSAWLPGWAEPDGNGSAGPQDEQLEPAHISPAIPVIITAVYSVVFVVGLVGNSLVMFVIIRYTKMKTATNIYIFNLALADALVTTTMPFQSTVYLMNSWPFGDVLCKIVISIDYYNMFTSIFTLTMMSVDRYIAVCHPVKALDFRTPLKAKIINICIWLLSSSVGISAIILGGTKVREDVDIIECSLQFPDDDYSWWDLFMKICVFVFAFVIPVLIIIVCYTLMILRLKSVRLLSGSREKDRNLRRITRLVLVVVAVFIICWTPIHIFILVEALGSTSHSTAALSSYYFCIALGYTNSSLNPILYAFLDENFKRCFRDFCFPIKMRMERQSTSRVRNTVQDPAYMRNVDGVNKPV
Procedure: Using guinea pig ileum (GPI), antagonist activities against U-50488H which is a κ-opioid agonist was determined.
Hartley male guinea pigs were used. After killing the guinea pigs by clubbing, ilea were taken. The inside of the ilea was washed with a nutrient liquid and only longitudinal muscles were peeled off. Using the thus obtained longitudinal muscles, the tests were carried out using the same apparatus as used in the experiment employing MVD.
First, U-50488H which is a κ-agonist was cumulatively added and IC50 value was determined. Thereafter, the muscle was well washed with the nutrient liquid. After the contraction reaction became stable, 100 nM of a test compound was added. From 20 minutes after, U-50488H was cumulatively added and the ratio of IC50 values, Ke value and pA2 value were determined in the same manner as in the experiment employing MVD.

[3] = test system: Cerebral cortex nerve cells; test: Brain cell-protecting action, MTT method; format: cell-based, rat; details: 10 μM; for brain cell-protecting action (in words): MTT; for Ratio of Absorbances: study group / control group, 570 nm, 3 days culture
Procedure: The brain cell-protecting action was examined by MTT [3-(4,5-dimethylthiazol-2-yl)-2,5-diphenyltetrazolium bromide] method. MTT yields a dark blue formazan compound by mitochondria in living cells. This compound was dissolved in isopropanol and absorbance at 570 nm was measured, thereby measuring the number of living cells.
Cerebral cortex nerve cells of fetal rats of 17 days old were placed in wells of a 96-well plate at a population density of 1×10^5 cells/cm^2. Then 10 μM of a test compound was added and the cells were cultured in 200 μl of mixed medium of D-MEM/F.12 (1:1) for 3 days (37° C., 5%CO2). In a control group, the medium alone was added Then […] of MTT solution in PBS (6mg/ml) was added and the mixture was allowed to react for 3 hours (37° C., 5% CO2). After removing the culture medium, 100 μl of isopropanol was added and the absorbance was measured.
The ratio of the absorbances of the study group and the control group was employed as an index of brain cell-protecting action.

[4] = test system: delayed type hypersensitivity; test: Mouse Delayed Type Hypersensitivity Reaction Suppression Test-1 (SRBC); format: in vivo; details: SRBC sensitization; subcutaneous, everyday from 3 days before sensitization, totally 8 days; BALB/c
Procedure: BALB/c mice (male, 7 weeks old) were used. The mice were classified into groups depending on the body weight, each group consisting of 7-8 mice. Each of the mice was sensitized by subcutaneously administering […] of SRBC (8×10^8 in saline) on the heel of the left hing leg. On day 4 from the sensitization, 25 μl of SRBC (8×10^9 in saline) was subcutaneously administered on the right footpad so as to induce delayed type hypersensitivity. The difference in the thicknesses of the right footpad before the induction of reaction and 24 hours after the induction of the reaction was employed as an index of the degree of the reaction.
The test compound was dissolved in 10% DMSO-water and was subcutaneously administered everyday from 3 days before the sensitization to the day of induction of the reaction, totally 8 days. In the control group, 10% DMSO-water alone was administered in the same manner. The volume of administration was 5 ml/kg in both study groups and in the control group.
The % suppression of the delayed type hypersensitivity reaction was calculated according to the following equation: [formula]
wherein A means the difference in the thickness of the right hind leg before and after the reaction in control group, and B means the difference in the thickness of the right hind leg before and after the reaction in the group to which the test compound was administered.

[5] = test system: delayed type hypersensitivity; test: Mouse Delayed Type Hypersensitivity Reaction Suppression Test-2 (donor spleen cells, subcutaneous administration); format: in vivo; details: C57BL/6 spleen cells; subcutaneous everyday from day of sensitization, totally 8 days; BALB/c
Text: BALB/c mice (male, 7 weeks old) were used, and each group consisted of 4-5 mice. Spleen cells (1×10^7 ) obtained from a donor mouse (C57BL/6) was subcutaneously administered to sensitize the mice. On Day 7 from the sensitization, the spleen cells (5×10^6) of the donor were subcutaneously administered on the right hing leg and spleen cells (5×10^6) obtained from a mouse of the same line as the recipient mice were subcutaneously administered on the left footpad. Twenty four hours later, the thicknesses of the right and left footpads were measured with a dial thickness gage, and the difference in thicknesses of the right and left footpads before the induction of the reaction and 24 hours after the induction of the reaction was employed as the index of the degree of the reaction.
The test compound was dissolved in 10% DMSO-water and was subcutaneously administered everyday from the day of sensitization to the day of induction of the reaction, totally 8 days. In the control group, 10% DMSO-water alone was administered in the same manner. The volume of administration was 10 ml/kg in both study groups and in the control group. Delayed Type Hypersensitivity Reaction=(thickness of right foodpad after induction-thickness of right footpad before induction)-(thickness of […] before induction) [formula]
wherein C means delayed type hypersensitivity reaction of the group to which the test compound was administered and D means the delayed type hypersensitivity reaction of the group to which vehicle was administered.

T1 sequence (P32300 whole entry): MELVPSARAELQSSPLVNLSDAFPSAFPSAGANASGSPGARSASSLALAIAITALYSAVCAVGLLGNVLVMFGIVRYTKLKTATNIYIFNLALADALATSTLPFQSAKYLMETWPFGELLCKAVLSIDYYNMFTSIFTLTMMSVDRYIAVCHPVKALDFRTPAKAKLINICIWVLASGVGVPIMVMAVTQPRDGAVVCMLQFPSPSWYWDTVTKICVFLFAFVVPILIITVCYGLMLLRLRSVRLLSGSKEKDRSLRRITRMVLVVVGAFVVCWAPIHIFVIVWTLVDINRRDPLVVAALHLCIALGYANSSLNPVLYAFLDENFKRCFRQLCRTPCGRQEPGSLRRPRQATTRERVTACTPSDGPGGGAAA

Row | Compound | Ratio of IC50 Values [1] | Kb [1] | Ratio of IC50 Values [2] | Kb [2] | brain cell-protecting action (in words) [3] | Ratio of Absorbances [3] | brain cell-protecting activity relative to nor-BNI (in words) ([3]; vs nor-BNI) | % Suppression [4] | % Suppression [5] | δ-antagonist activity relative to NTI (times that of NTI) [1]
1 | CN(C)CCc1ccc2[nH]c3c(c2c1)C[C@@]1(O)[C@H]2Cc4ccc(O)c5c4[C@@]1(CCN2CC1CC1)[C@H]3O5 [Compound 9, 17-cyclopropylmethyl-6,7-didehydro-4,5α-epoxy-3,14-dihydroxy-5'-[2-(N,N-dimethylamino)ethyl]-6,7-2',3'-indolomorphinan] | 25.6 | 4.07 nM | 99.0 | 4.07 nM | Clear activities | 8.27 | higher than that of nor-BNI |  |  | 
2 | N#Cc1ccc2c3c([nH]c2c1)[C@@H]1Oc2c(O)ccc4c2[C@@]12CCN(CC1CC1)[C@H](C4)[C@]2(O)C3 [Compound 53, 17-cyclopropylmethyl-6,7-didehydro-4,5α-epoxy-3,14β-dihydroxy-6'-cyano-6,7-2',3'-indolomorphinan] | 62.3 | 1.63 nM |  |  |  |  |  | 18% |  | 
3 | Oc1ccc2c3c1O[C@H]1c4[nH]c5c(-c6ccccc6)cccc5c4C[C@@]4(O)[C@@H](C2)N(CC2CC2)CC[C@]314 [Compound 120, 17-cyclopropylmethyl-6,7-didehydro-4,5α-epoxy-3,14β-dihydroxy-7'-phenyl-6,7-2',3'-indolomorphinan] | 17.0 | 6.25 nM |  |  |  |  |  |  | 46% | 
4 | O=[N+]([O-])c1cccc2c3c([nH]c12)[C@@H]1Oc2c(O)ccc4c2[C@@]12CCN(CC1CC1)[C@H](C4)[C@]2(O)C3 [Compound 136, 17-cyclopropylmethyl-6,7-didehydro-4,5α-epoxy-3,14β-dihydroxy-7'-nitro-6,7-2',3'-indolomorphinan] | 192 | 0.52 nM |  |  |  |  |  | 18% |  | 
5 | O=[N+]([O-])c1cccc2[nH]c3c(c12)C[C@@]1(O)[C@H]2Cc4ccc(O)c5c4[C@@]1(CCN2CC1CC1)[C@H]3O5 [Compound 78, 17-cyclopropylmethyl-6,7-didehydro-4,5α-epoxy-3,14β-dihydroxy-4'-nitro-6,7-2',3'-indolomorphinan] | 148 | 7.25 nM |  |  |  |  |  | 36% |  | 
6 | CN(C)Cc1ccc2[nH]c3c(c2c1)C[C@@]1(O)[C@H]2Cc4ccc(O)c5c4[C@@]1(CCN2CC1CC1)[C@H]3O5 [Compound 10, 17-cyclopropylmethyl-6,7-didehydro-4,5α-epoxy-3,14β-dihydroxy-5'-(N,N-dimethylamino)methyl-6,7-2',3'-indolomorphinan] | 11.4 | 9.62 nM | 19.4 | 9.67 nM | Clear activities | 7.58 |  |  |  | 
7 | CCCOC(=O)c1ccc2c3c([nH]c2c1)[C@@H]1Oc2c(O)ccc4c2[C@@]12CCN(CC1CC1)[C@H](C4)[C@]2(O)C3 [Compound 393, 17-cyclopropylmethyl-6,7-didehydro-4,5α-epoxy-3,14β-dihydroxy-6'-propoxycarbonyl-6,7-2',3'-indolomorphinan] | 12.3 | 8.85 nM |  |  |  |  |  |  | 33% | 
8 | C[S+]([O-])c1cccc2c3c([nH]c12)[C@@H]1Oc2c(O)ccc4c2[C@@]12CCN(CC1CC1)[C@H](C4)[C@]2(O)C3 (single isomer, unassigned) [Compound 591, 17-cyclopropylmethyl-6,7-didehydro-4,5α-epoxy-3,14β-dihydroxy-7'-methylsulfinyl-6,7-2',3'-indolomorphinan] |  |  |  |  |  |  |  |  | 16% | 
9 | C[S+]([O-])c1cccc2c3c([nH]c12)[C@@H]1Oc2c(O)ccc4c2[C@@]12CCN(CC1CC1)[C@H](C4)[C@]2(O)C3 (single isomer, unassigned) [Compound 592, 17-cyclopropylmethyl-6,7-didehydro-4,5α-epoxy-3,14β-dihydroxy-7'-methylsulfinyl-6,7-2',3'-indolomorphinan] |  |  |  |  |  |  |  |  | 20% | 
10 | O=C(NCC1CC1)c1ccc2[nH]c3c(c2c1)C[C@@]1(O)[C@H]2Cc4ccc(O)c5c4[C@@]1(CCN2CC1CC1)[C@H]3O5 [Compound 7, 17-cyclopropylmethyl-6,7-didehydro-4,5α-epoxy-3,14β-dihydroxy-5'-(N-cyclopropylmethylcarbamoyl)-6,7-2',3'-indolomorphinan] | 33.2 | 3.11 nM | 22.8 | 4.59 nM | Clear activities | 5.31 |  |  |  | 
11 | CSc1ccc2c3c([nH]c2c1)[C@@H]1Oc2c(O)ccc4c2[C@@]12CCN(CC1CC1)[C@H](C4)[C@]2(O)C3 [Compound 43, 17-cyclopropylmethyl-6,7-didehydro-4,5α-epoxy-3,14β-dihydroxy-6'-methylthio-6,7-2',3'-indolomorphinan] | 168 | 0.6 nM |  |  |  |  |  | 26% | 27% | 
12 | CCOC(=O)c1cccc2c3c([nH]c12)[C@@H]1Oc2c(O)ccc4c2[C@@]12CCN(CC1CC1)[C@H](C4)[C@]2(O)C3 [Compound 119, 17-cyclopropylmethyl-6,7-didehydro-4,5α-epoxy-3,14β-dihydroxy-7'-ethoxycarbonyl-6,7-2',3'indolomorphinan] | 635 | 0.16 nM |  |  |  |  |  | 12% | 31% | 1.3-1.6 times
13 | CSc1cccc2c3c([nH]c12)[C@@H]1Oc2c(O)ccc4c2[C@@]12CCN(CC1CC1)[C@H](C4)[C@]2(O)C3 [Compound 121, 17-cyclopropylmethyl-6,7-didehydro-4,5α-epoxy-3,14β-dihydroxy-7'-methylthio-6,7-2',3'-indolomorphinan] | 33.6 | 3.07 nM |  |  |  |  |  | 20% |  | 

Reference: patent US6291470A, “Indole derivatives process for producing the same and medicinal uses of the same” (Toray Industries, Inc., priority 1992, dated 2001)
